Legend:
Assay in all cases: relative viability (nuclei count vs DMSO), 5 days (fraction); higher = more cells survive
SK-LU-1 = system: SK-LU-1
Outline: (§1)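 Nuclei were stained with Hoechst during a one-step fixation (final 0.05% Triton X-100, 1% formaldehyde, 1 ug/ml Hoechst) carried out 5 days after dosing, then counted on 4× images. The cells, lung cancer lines in 1536-well plates, had been dosed by pin tool the day after seeding with one drug alone or a fixed anchor-drug dose plus five library-drug doses (not always all listed) in √10 steps. Relative viability is the nuclei count in treated wells divided by that in vehicle wells, and each value is the median of duplicate plates.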

NCI-H1395 = system: NCI-H1395
Outline: as §1

EMC-BAC-2 = system: EMC-BAC-2
Outline: as §1

COR-L 105 = system: COR-L 105
Outline: as §1

NCI-H1915 = system: NCI-H1915
Outline: as §1

HARA = system: HARA
Outline: as §1

NCI-H2228 = system: NCI-H2228
Outline: as §1

NCI-H2009 = system: NCI-H2009
Outline: as §1

NCI-H1755 = system: NCI-H1755
Outline: as §1

A-427 = system: A-427
Outline: as §1

Cc1sc2c(c1C)C(c1ccc(Cl)cc1)=N[C@@H](CC(=O)OC(C)(C)C)c1nnc(C)n1-2 [JQ1] + COc1cc2c(Oc3ccc(NC(=O)C4(C(=O)Nc5ccc(F)cc5)CC4)cc3F)ccnc2cc1OCCCN1CCOCC1 [Foretinib] (partner 0.25 µM)
relative viability (SK-LU-1; first compound 0.1265 µM): 0.613 | relative viability (SK-LU-1; first compound 0.4 µM): 0.787 | relative viability (SK-LU-1; first compound 1.265 µM): 0.306 | relative viability (SK-LU-1; first compound 4 µM): 0.153 | relative viability (NCI-H1395; first compound 0.04 µM): 0.716 | relative viability (NCI-H1395; first compound 0.1265 µM): 0.955 | relative viability (NCI-H1395; first compound 0.4 µM): 1 | relative viability (NCI-H1395; first compound 1.265 µM): 0.732 | relative viability (NCI-H1395; first compound 4 µM): 0.525 | relative viability (EMC-BAC-2; first compound 0.04 µM): 1.04 | relative viability (EMC-BAC-2; first compound 0.1265 µM): 0.868 | relative viability (EMC-BAC-2; first compound 0.4 µM): 0.584 | relative viability (EMC-BAC-2; first compound 1.265 µM): 0.376 | relative viability (EMC-BAC-2; first compound 4 µM): 0.556 | relative viability (COR-L 105; first compound 0.04 µM): 0.794 | relative viability (COR-L 105; first compound 0.1265 µM): 0.604 | relative viability (COR-L 105; first compound 0.4 µM): 0.656 | relative viability (COR-L 105; first compound 1.265 µM): 0.219 | relative viability (COR-L 105; first compound 4 µM): 0.272 | relative viability (NCI-H1915; first compound 0.04 µM): 1.09 | relative viability (NCI-H1915; first compound 0.1265 µM): 1.03 | relative viability (NCI-H1915; first compound 0.4 µM): 0.732 | relative viability (NCI-H1915; first compound 1.265 µM): 0.653 | relative viability (NCI-H1915; first compound 4 µM): 0.449 | relative viability (HARA; first compound 0.04 µM): 0.89 | relative viability (HARA; first compound 0.1265 µM): 0.647 | relative viability (HARA; first compound 0.4 µM): 0.572 | relative viability (HARA; first compound 1.265 µM): 0.343 | relative viability (HARA; first compound 4 µM): 0.227 | relative viability (NCI-H2228; first compound 0.04 µM): 0.806 | relative viability (NCI-H2228; first compound 0.1265 µM): 0.766 | relative viability (NCI-H2228; first compound 0.4 µM): 0.647 | relative viability (NCI-H2228; first compound 1.265 µM): 0.481 | relative viability (NCI-H2228; first compound 4 µM): 0.383 | relative viability (NCI-H2009; first compound 0.04 µM): 1.06 | relative viability (NCI-H2009; first compound 0.1265 µM): 0.801 | relative viability (NCI-H2009; first compound 0.4 µM): 0.786 | relative viability (NCI-H2009; first compound 1.265 µM): 0.413 | relative viability (NCI-H2009; first compound 4 µM): 0.352 | relative viability (NCI-H1755; first compound 0.04 µM): 0.896 | relative viability (NCI-H1755; first compound 0.1265 µM): 0.831 | relative viability (NCI-H1755; first compound 0.4 µM): 0.945 | relative viability (NCI-H1755; first compound 1.265 µM): 0.793 | relative viability (NCI-H1755; first compound 4 µM): 0.634 | relative viability (A-427; first compound 0.04 µM): 1.01 | relative viability (A-427; first compound 0.1265 µM): 0.988 | relative viability (A-427; first compound 0.4 µM): 0.913 | relative viability (A-427; first compound 1.265 µM): 0.908 | relative viability (A-427; first compound 4 µM): 0.636
